Results published in US6605628B1, “Method of using 5-(arysulfonyl)-, 5-(arylsulfanyl)-and 5-(arylsulfanyl)thiazolidine-2,4-diones for inhibition of farnesyl-protein transferase” (Wyeth Holdings Corporation, priority 2001, dated 2003).

How the values were obtained:
FPTase [1] = target: T1, FPTase (Homo sapiens, UniProt P49354+P49356); experiment: in vitro FTase Inhibition Assay, H-Ras used as substrate for farnesylation; type: biochemical; settings: Table I, read-out: IC50 H-Ras*
FPTase [2] = target: T1, FPTase; experiment: in vitro FTase Inhibition Assay, K-Ras used as substrate for farnesylation; type: biochemical; settings: Table I

SMILES	melting point	IC50 (FPTase [1]) [nM]	IC50 (FPTase [2]) [nM]
O=C1NC(=O)C(CCCC#Cc2cc(Cl)ccc2Cl)(S(=O)(=O)c2ccc(Oc3ccncc3)cc2)S1 (stereo not drawn) [Example 116, 5-[5-(2,5-Dichlorophenyl)pent-4-ynyl]-5-[4-(pyridin-4-yloxy)benzenesulfonyl]thiazolidine-2,4-dione]	179 to 180 °C (dec.)	5 to 10	17 to 40
COc1ccc(S(=O)(=O)C2(CCCC#Cc3ccc(Cl)cc3Cl)SC(=O)NC2=O)cc1 (stereo not drawn) [Example 117, 5-[5-(2,4-Dichlorophenyl)pent-4-ynyl]-5-(4-methoxybenzenesulfonyl)-thiazolidine-2,4-dione]	129 to 133 °C	20 to 30	510 to 1000
COc1ccc(S(=O)(=O)C2(CCCC#Cc3cccc([N+](=O)[O-])c3)SC(=O)NC2=O)cc1 (stereo not drawn) [Example 118, 5-(4-Methoxybenzenesulfonyl)-5-[5-(3-nitrophenyl)pent-4-ynyl]thiazolidine-2,4-dione]	126 to 130 °C	70	1900
O=C1NC(=O)C(CCCC#Cc2cccc([N+](=O)[O-])c2)(S(=O)(=O)c2ccc(Oc3ccccc3)cc2)S1 (stereo not drawn) [Example 119, 5-[5-(3-Nitrophenyl)pent-4-ynyl]-5-(4-phenoxybenzenesulfonyl)thiazolidine-2,4-dione]	190 to 191 °C	130 to 140	1300 to 1700
O=C1NC(=O)C(CCCC#Cc2ccc([N+](=O)[O-])cc2)(S(=O)(=O)c2ccc(I)cc2)S1 (stereo not drawn) [Example 120, 5-(4-Iodobenzenesulfonyl)-5-[5-(4-nitrophenyl)pent-4-ynyl]thiazolidine-2,4-dione]	205 to 207 °C	18 to 32	530 to 1000
COc1ccc(S(=O)(=O)C2(CCCC#Cc3ccc([N+](=O)[O-])cc3)SC(=O)NC2=O)cc1 (stereo not drawn) [Example 121, 5-(4-Methoxybenzenesulfonyl)-5-[5-(4-nitrophenyl)pent-4-ynyl]thiazolidine-2,4-dione]	156 to 158 °C	120	1600
Cc1ccc([N+](=O)[O-])cc1C#CCCCC1(S(=O)(=O)c2ccc(Oc3ccccc3)cc2)SC(=O)NC1=O (stereo not drawn) [Example 124]	203 to 204 °C	52 to 80	910 to 1300
Cc1ccc([N+](=O)[O-])cc1C#CCCCC1(S(=O)(=O)c2ccc(I)cc2)SC(=O)NC1=O (stereo not drawn) [Example 125, 5-(4-Iodobenzenesulfonyl)-5-[5-(2-methyl-5-nitrophenyl)pent-4-ynyl]-thiazolidine-2,4-dione]	188 to 190 °C	30	400
Cc1ccc([N+](=O)[O-])cc1C#CCCCC1(S(=O)(=O)c2cccc3ccccc23)SC(=O)NC1=O (stereo not drawn) [Example 126, 5-[5-(2-Methyl-5-nitrophenyl)-pent-4-ynyl]-5-(naphthalene-1-sulfonyl)-thiazolidine-2,4-dione]	168 to 172 °C	90	1700
Cc1ccc([N+](=O)[O-])cc1C#CCCCC1(S(=O)(=O)c2ccc3ccccc3c2)SC(=O)NC1=O (stereo not drawn) [Example 127, 5-[5-(2-Methyl-5-nitrophenyl)pent-4-ynyl]-5-(naphthalene-2-sulfonyl)-thiazolidine-2,4-dione]	197 to 200 °C	120 to 140	1300 to 1500
Cc1cc([N+](=O)[O-])ccc1C#CCCCC1(S(=O)(=O)c2ccc(Oc3ccccc3)cc2)SC(=O)NC1=O (stereo not drawn) [Example 129, 5-[5-(2-Methyl-4-nitrophenyl)pent-4-ynyl]-5-(4-phenoxybenzenesulfonyl)-thiazolidine-2,4-dione]	210 to 212 °C	100	600 to 790
Cc1ccc(C)c(C#CCCCC2(S(=O)(=O)c3ccc(I)cc3)SC(=O)NC2=O)c1 (stereo not drawn) [Example 134, 5-[5-(2,5-Dimethylphenyl)pent-4-ynyl]-5-(4-iodobenzenesulfonyl)-thiazolidine-2,4-dione]	129 to 130 °C	14 to 850	430 to 680
COc1ccc(S(=O)(=O)C2(CCCC#Cc3cc(C)ccc3C)SC(=O)NC2=O)cc1 (stereo not drawn) [Example 135, 5-[5-(2,5-Dimethylphenyl)pent-4-ynyl]-5-(4-methoxybenzenesulfonyl)-thiazol idine-2 ,4-dione]	149 to 150 °C	20 to 32	1900 to 2100
COc1ccc(S(=O)(=O)C2(CCCC#Cc3ccc(C)cc3C)SC(=O)NC2=O)cc1 (stereo not drawn) [Example 136, 5-[5-(2,4-Dimethylphenyl)pent-4-ynyl]-5-(4-methoxybenzenesulfonyl)-thiazolidine-2,4-dione]	155 to 156 °C	43 to 50	1000 to 1900
Cc1ccc(C#CCCCC2(S(=O)(=O)c3ccc(I)cc3)SC(=O)NC2=O)c(C)c1 (stereo not drawn) [Example 137, 5-[5-(2,4-Dimethylphenyl)pent-4-ynyl]-5-(4-iodobenzenesulfonyl)-thiazolidine-2,4-dione]	153 to 154 °C	21 to 400	37 to 800
COc1ccc(S(=O)(=O)C2(CCCC#Cc3cc(Cl)ccc3C)SC(=O)NC2=O)cc1 (stereo not drawn) [Example 138, 5-[5-(5-Chloro-2-methylphenyl)pent-4-ynyl]-5-(4-methoxybenzene-sulfonyl)-thiazolidine-2,4-dione]	121 to 122 °C	23 to 32	300 to 420
Cc1ccc(Cl)cc1C#CCCCC1(S(=O)(=O)c2ccc(OC(F)(F)F)cc2)SC(=O)NC1=O (stereo not drawn) [Example 139, 5-[5-(5-Chloro-2-methylphenyl)pent-4-ynyl]-5-(4-trifluoromethoxybenzene-sulfonyl)-thiazolidine-2,4-dione]	196 °C (dec.)	140 to 170	600 to 5000
Cc1cc(Cl)ccc1C#CCCCC1(S(=O)(=O)c2ccc(I)cc2)SC(=O)NC1=O (stereo not drawn) [Example 141, 5-(5-(4-Chloro-2-methylphenyl)-pent-4-ynyl]-5-(4-iodobenzene-sulfonyl)-thiazolidine-2,4-dione]	93 to 99 °C	21 to 32	300 to 340
Cc1cc(Br)ccc1C#CCCCC1(S(=O)(=O)c2ccc(I)cc2)SC(=O)NC1=O (stereo not drawn) [Example 144, 5-[5-(4-Bromo-2-methylphenyl)pent-4-ynyl]-5-(4-iodobenzenesulfonyl)-thiazolidine-2,4-dione]	146 to 147 °C	40 to 41	320 to 550
Cc1ccc(NC(=O)OC(C)(C)C)cc1C#CCCCC1(S(=O)(=O)c2ccc(I)cc2)SC(=O)NC1=O (stereo not drawn) [Example 148, (3-{5-[5-(4-Iodobenzenesulfonyl)-2,4-dioxothiazolidin-5-yl]-pent-1-ynyl}-4-methylphenyl)carbamic Acid tert-Butyl Ester]	172 to 175 °C	4.5 to 120	23 to 31
COc1ccc(S(=O)(=O)C2(CCCC#Cc3cc(NC(=O)OC(C)(C)C)ccc3C)SC(=O)NC2=O)cc1 (stereo not drawn) [Example 150, (3-{5-[5-(4-Methoxybenzenesulfonyl)-2,4-dioxothiazolidin-5-yl]pent-1-ynyl}-4-methylphenyl)carbamic Acid tert-Butyl Ester]	116 to 118 °C	7.4 to 32	16 to 68
COc1ccc(S(=O)(=O)C2(CCCC#Cc3cc(C(=O)NC(C)(C)C)ccc3C)SC(=O)NC2=O)cc1 (stereo not drawn) [Example 152, N-tert-Butyl-3-{5-[5-(4-methoxybenzenesulfonyl)-2,4-dioxothiazol-idin-5-yl]pent-1-ynyl}-4-methyl-benzamide]	205 to 208 °C	11 to 16	100 to 230
COc1ccc(S(=O)(=O)C2(CCCC#Cc3ccc(C(F)(F)F)cc3)SC(=O)NC2=O)cc1 (stereo not drawn) [Example 153, 5-(4-Methoxybenzenesulfonyl)-5-[5-(4-trifluoromethylphenyl)pent-4-ynyl]thiazolidine-2,4-dione]	160 to 163 °C	170 to 200	1000 to 6100
COc1ccc(S(=O)(=O)C2(CCCC#Cc3ccc(OC(F)(F)F)cc3)SC(=O)NC2=O)cc1 (stereo not drawn) [Example 154, 5-(4-Methoxybenzenesulfonyl)-5-[5-(4-trifluoromethoxyphenyl)pent-4-ynyl]thiazolidine-2,4-dione]	120 to 123 °C	70 to 150	1000 to 2500
COC(=O)c1ccc(C)c(C#CCCCC2(S(=O)(=O)c3ccc(OC)cc3)SC(=O)NC2=O)c1 (stereo not drawn) [Example 155, 3-{5-[5-(4-Methoxybenzenesulfonyl)-2,4-dioxo-thiazolidin-5-yl]-pent-1-ynyl}-4-methylbenzoic Acid Methyl Ester]	119 to 121 °C	10 to 320	420 to 440
Cc1ccc(S(=O)(=O)C2(CCCC#Cc3ccc(C(C)(C)C)cc3)SC(=O)NC2=O)cc1 (stereo not drawn) [Example 157, 5-[5-(4-tert-Butylphenyl)pent-4-ynyl]-5-(toluene-4-sulfonyl)thiazolidine-2,4-dione]	134 to 138 °C	270	5000
COc1ccc(S(=O)(=O)C2(CCCC#Cc3ccc(C#N)cc3)SC(=O)NC2=O)cc1 (stereo not drawn) [Example 158, 4-(5-[5-(4-Methoxybenzenesulfonyl)-2,4-dioxo-thiazolidin-5-yl]pent-1-ynyl}benzonitrile]	174 to 178 °C	150	3800
Cc1ccc(S(=O)(=O)C2(CCCC#Cc3ccc(S(C)(=O)=O)cc3)SC(=O)NC2=O)cc1 (stereo not drawn) [Example 159, 5-[5-(4-Methanesulfonylphenyl)-pent-4-ynyl]-5-(toluene-4-sulfonyl)-thiazolidine-2,4-dione]	190 to 193 °C	650	> 10000
O=C1NC(=O)C(CCCC#Cc2ccc(-n3cccc3)cc2)(S(=O)(=O)c2ccc(I)cc2)S1 (stereo not drawn) [Example 162, 5-(4-Iodo-benzenesulfonyl)-5-[5-(4-pyrrol-1-yl-phenyl)pent-4-ynyl]-thiazolidine-2,4-dione]	194 to 195 °C	1210	4000
